In ChEMBL document CHEMBL3286092, “Discovery of 1-arylpyrrolidone derivatives as potent p53-MDM2 inhibitors based on molecule fusing strategy” (Bioorg Med Chem Lett, 2014):
pKi: −log10 of the molar value.

Tests used:
[1] = target: E3 ubiquitin-protein ligase Mdm2 (Homo sapiens, UniProt Q00987); test: Binding affinity to MDM2 (unknown origin) assessed as inhibition of interaction with p53 after 1 hr by fluorescence polarization binding assay
A549 = test: Induction of p53 level in human A549 cells after 4 hrs by Western blotting analysis; assay type: functional, cell-based

Sequence of E3 ubiquitin-protein ligase Mdm2 (Q00987 whole entry): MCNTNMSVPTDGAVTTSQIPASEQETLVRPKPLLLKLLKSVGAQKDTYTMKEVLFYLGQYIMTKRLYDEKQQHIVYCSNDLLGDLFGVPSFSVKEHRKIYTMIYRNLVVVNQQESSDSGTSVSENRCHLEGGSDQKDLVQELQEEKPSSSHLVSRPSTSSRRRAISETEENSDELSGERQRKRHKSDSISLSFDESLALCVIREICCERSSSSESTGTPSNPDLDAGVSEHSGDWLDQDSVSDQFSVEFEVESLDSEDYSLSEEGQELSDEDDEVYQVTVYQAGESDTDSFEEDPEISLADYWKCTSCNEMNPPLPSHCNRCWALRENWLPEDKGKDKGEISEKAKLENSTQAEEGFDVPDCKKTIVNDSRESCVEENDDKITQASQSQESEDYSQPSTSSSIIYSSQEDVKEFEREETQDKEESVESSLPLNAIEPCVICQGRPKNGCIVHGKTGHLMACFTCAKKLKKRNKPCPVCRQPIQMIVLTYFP

Compound	pKi [1]	Activity (A549)
C[C@@H](NC1=C(C(=O)c2ccccc2)C(c2ccc(Br)cc2)N(Cc2ccc(C(F)(F)F)cc2F)C1=O)c1ccccc1 (stereo not given in full)	< 4.00	
CC(C)OC1=C(C(=O)c2ccccc2)C(c2ccc(Br)cc2)N(Cc2ccc(C(F)(F)F)cc2F)C1=O (stereo not given)	< 4.00	
CC(C)Oc1cc(C(F)(F)F)ccc1CN1C(=O)C(N[C@H](C)c2ccccc2)=C(C(=O)c2ccccc2)C1c1ccc(Br)cc1 (stereo not given in full)		Dose-dependent effect
COc1cc(C(F)(F)F)ccc1CN1C(=O)C(N[C@H](C)c2ccccc2)=C(C(=O)c2ccccc2)C1c1ccc(Br)cc1 (stereo not given in full)	< 4.00	
CC(C)OC1=C(C(=O)c2ccccc2)C(c2ccc(Br)cc2)N(Cc2ccc(C(F)(F)F)cc2OC(C)C)C1=O (stereo not given)	< 4.00	
